Measured values: patent US20230159510A1, “NOVEL PRMT5 INHIBITORS” (AMGEN INC., priority 2020, published 2023)
Where two headings read alike, the source gives them in different places.

Columns and labels:
HCT116 WT cells = assay: HCT116 proliferation assay, WT cells (CellTiter-Glo, 6 days); format: cell-based; settings: Homo sapiens, HCT-116, 144 h, read-out: Prolif_HCT116-WT IC50
Outline: (§1)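 Compound titrations (top dose 1 or 10 µM, 1:3 dilution, 8 or 9 concentrations) and a DMSO control were applied to cells cultured overnight beforehand in RPMI 1640 with 10% FBS at 37° C, 5% CO2; viability was scored from luminescence.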

HCT116 MTAP null cells = assay: HCT116 proliferation assay, MTAP null cells (CellTiter-Glo, 6 days); format: cell-based; settings: 144 h, read-out: Protif_ HCT116-MTAP null IC50
Outline: as §1

PRMT5/MEP50 = PRMT5/MEP50 (Homo sapiens, UniProt O14744); assay: MTase-Glo methyl transferase assay, Method B (FL-Histone H2A, 1 µM MTA, 1 h pre-incubation); format: biochemical; set-up: purchased Reaction Biology Corp RD-11-292; settings: read-out: PRMT5 MTase Glo Ki (nM, Meth. B)
Outline: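 PRMT5/MEP50 (4 nM) was pre-incubated 1 h with compound, 5 µM SAM and 1 µM MTA, then started with 2.5 µM FL-Histone H2A in Tris pH 8.0 buffer. After 20 h at room temperature, SAH was detected by MTase-Glo luminescence, and IC50/KI were fitted from dose-response curves.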

Sequence of PRMT5/MEP50 (O14744 2-637 limits assumed): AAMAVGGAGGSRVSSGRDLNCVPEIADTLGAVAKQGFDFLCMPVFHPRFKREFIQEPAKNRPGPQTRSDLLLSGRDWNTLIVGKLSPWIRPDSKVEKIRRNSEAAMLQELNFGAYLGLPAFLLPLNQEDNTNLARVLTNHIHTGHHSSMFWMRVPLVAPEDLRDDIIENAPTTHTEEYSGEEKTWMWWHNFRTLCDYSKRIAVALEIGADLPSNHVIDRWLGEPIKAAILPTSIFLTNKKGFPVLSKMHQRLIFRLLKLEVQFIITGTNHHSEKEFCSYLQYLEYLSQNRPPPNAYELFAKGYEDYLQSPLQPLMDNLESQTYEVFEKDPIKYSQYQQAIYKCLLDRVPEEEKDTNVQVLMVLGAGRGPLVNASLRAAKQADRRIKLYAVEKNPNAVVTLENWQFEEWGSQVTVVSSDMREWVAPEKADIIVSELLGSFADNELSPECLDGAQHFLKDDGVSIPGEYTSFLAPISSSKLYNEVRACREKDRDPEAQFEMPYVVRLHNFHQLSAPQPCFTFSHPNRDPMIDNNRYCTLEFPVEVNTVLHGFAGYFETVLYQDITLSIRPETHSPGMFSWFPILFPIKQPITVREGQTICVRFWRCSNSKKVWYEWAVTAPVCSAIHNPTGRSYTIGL
Sequence of PRMT5/MEP50 (Q9BQA1 2-342 partner limits assumed): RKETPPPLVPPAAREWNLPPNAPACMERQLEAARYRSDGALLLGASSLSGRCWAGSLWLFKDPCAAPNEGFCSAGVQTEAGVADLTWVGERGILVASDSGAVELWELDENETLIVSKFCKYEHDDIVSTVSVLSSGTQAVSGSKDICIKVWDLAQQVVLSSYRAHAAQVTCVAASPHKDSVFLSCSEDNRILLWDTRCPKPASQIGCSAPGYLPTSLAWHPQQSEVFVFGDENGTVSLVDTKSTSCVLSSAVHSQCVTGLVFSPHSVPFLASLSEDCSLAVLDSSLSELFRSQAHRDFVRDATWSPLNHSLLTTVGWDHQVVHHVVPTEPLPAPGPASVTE

IC50 (HCT116 WT cells) [nM]	IC50 (HCT116 MTAP null cells; HCT116-MTAP null) [nM]	Ki (PRMT5/MEP50) [nM]	Structure (SMILES)	IC50 (HCT116 MTAP null cells) [nM]
5550	130	2 to 3	Cc1cc2cc(C(=O)N(Cc3ccc(N)nc3)Cc3ccc(C(F)(F)F)cn3)ccc2nc1N [Example 568, 2-amino-N-[(6-amino-3-pyridyl)methyl]-3-methyl-N-[[5-(trifluoromethyl)-2-pyridyl]methyl] quinoline-6-carboxamide]	
> 10000	343	2.39	Cc1cc2cc(C(=O)N(Cc3ccc4[nH]c(=O)[nH]c4c3)Cc3ccc(C(F)(F)F)cn3)ccc2nc1N [Example 570, 2-amino-3-methyl-N-((2-oxo-2,3-dihydro-1H-benzo[d]imidazol-5-yl)methyl)-N-((5-(trifluoromethyl)pyridin-2-yl)methyl)quinoline-6-carboxamide]	
> 10000	608	3.48	Cc1cc2cc(C(=O)N(Cc3ccc(N4CCC(C(N)=O)CC4)cc3)Cc3scnc3C)ccc2nc1N [Example 572, 2-amino-N-(4-(4-carbamoylpiperidin-1-yl)benzyl)-3-methyl-N-((4-methylthiazol-5-yl)methyl)quinoline-6-carboxamide]	
> 1000	78	2.89	Cc1cc2cc(C(=O)N(Cc3ccc(C(F)(F)F)cn3)CC(C)C3CC3)ccc2nc1N (stereo not drawn) [Example 575, 2-amino-N-(2-cyclopropylpropyl)-3-methyl-N-((5-(trifluoromethyl)pyridin-2-yl)methyl)quinoline-6-carboxamide]	
> 10000	749	5.89	Cc1cc2cc(C(=O)N(CCc3ncon3)Cc3ccc(C(F)(F)F)cn3)ccc2nc1N [Example 576, N-(2-(1,2,4-oxadiazol-3-yl)ethyl)-2-amino-3-methyl-N-((5-(trifluoromethyl)pyridin-2-yl)methyl)quinoline-6-carboxamide]	
6650	159	3.89	Cc1cc2cc(C(=O)N(Cc3ccc(C(F)(F)F)cn3)CC3(C#N)CC3)ccc2nc1N [Example 577, 2-amino-N-((1-cyanocyclopropyl)methyl)-3-methyl-N-((5-(trifluoromethyl)pyridin-2-yl)methyl)quinoline-6-carboxamide]	
5090	859	15.4	Cc1cc2cc(C(=O)N(Cc3ccc(C(F)(F)F)cn3)Cc3c(C)c4ccccc4n3C)ccc2nc1N [Example 578, 2-amino-N-((1,3-dimethyl-1H-indol-2-yl)methyl)-3-methyl-N-((5-(trifluoromethyl)pyridin-2-yl)methyl)quinoline-6-carboxamide]	
5600	110	2.24	Cc1cc2cc(C(=O)N(Cc3ccc(C(F)(F)F)cn3)Cc3cocn3)ccc2nc1N [Example 580, 2-amino-3-methyl-N-(oxazol-4-ylmethyl)-N-[[5-(trifluoromethyl)-2-pyridyl]methyl] quinoline-6-carboxamide]	
> 1000	840	16	Cc1cc2c(nc1N)CCC(C(=O)N(Cc1ccc(C(F)(F)F)cn1)Cc1ccnc3[nH]ccc13)C2 (stereo not drawn) [Example 581, N-((1H-pyrrolo[2,3-b]pyridin-4-yl)methyl)-2-amino-3-methyl-N-((5-(trifluoromethyl)pyridin-2-yl)methyl)-5,6,7,8-tetrahydroquinoline-6-carboxamide]	
6800	921	14.9	Cc1cc2cc(C(=O)N(Cc3cncc(F)c3)Cc3ccccc3F)ccc2nc1N [Example 590, 2-amino-N-(2-fluorobenzyl)-N-((5-fluoropyridin-3-yl)methyl)-3-methylquinoline-6-carboxamide]	
> 1000	185	13.2	Cc1cc2cc(C(=O)N(Cc3ccc(C(F)(F)F)cn3)C3COCc4ccccc43)ccc2nc1N (stereo not drawn) [Example 593, 2-amino-N-(isochroman-4-yl)-3-methyl-N-((5-(trifluoromethyl)pyridin-2-yl)methyl)quinoline-6-carboxamide]	
> 1000	640	26	Cc1cc2cc(C(=O)N(Cc3ccc(C(F)(F)F)cn3)C3CC(C)(C)c4ccccc43)ccc2nc1N (stereo not drawn) [Example 594, 2-amino-N-(3,3-dimethyl-2,3-dihydro-1H-inden-1-yl)-3-methyl-N-((5-(trifluoromethyl)pyridin-2-yl)methyl)quinoline-6-carboxamide]	
8200	990	21.5	Cc1cc2cc(C(=O)N(Cc3ccc(C(F)(F)F)cn3)C3CC(C)c4ccccc43)ccc2nc1N (stereo not drawn) [Example 595, 2-amino-3-methyl-N-(3-methyl-2,3-dihydro-1H-inden-1-yl)-N-((5-(trifluoromethyl)pyridin-2-yl)methyl)quinoline-6-carboxamide]	
> 10000	352	17.1	Cc1cc2cc(C(=O)N(Cc3ccc(C(F)(F)F)cn3)CC3CCOCC3C)ccc2nc1N (stereo not drawn) [Example 596, 2-amino-3-methyl-N-((3-methyltetrahydro-2H-pyran-4-yl)methyl)-N-((5-(trifluoromethyl)pyridin-2-yl)methyl)quinoline-6-carboxamide]	
> 1000	300	6.35	Cc1cc2cc(C(=O)N(Cc3cncc(F)c3)Cc3ccc(C(F)(F)F)cn3)ccc2nc1N [Example 597, 2-amino-N-((5-fluoropyridin-3-yl)methyl)-3-methyl-N-((5-(trifluoromethyl)pyridin-2-yl)methyl)quinoline-6-carboxamide]	
> 1000	180	2.44	Cc1cc2cc(C(=O)N(Cc3cnc4[nH]ccc4c3)Cc3ccc(C(F)(F)F)cn3)ccc2nc1N [Example 598, 2-amino-3-methyl-N-(1H-pyrrolo [2,3-b]pyridin-5-ylmethyl)-N-[[5-(trifluoromethyl)-2-pyridyl]methyl]quinoline-6-carboxamide]	
> 1000	280	3.12	Cc1cc2cc(C(=O)N(Cc3ccc(C(F)(F)F)cn3)Cc3cc4c([nH]c3=O)CCC4)ccc2nc1N [Example 599, 2-amino-3-methyl-N-[(2-oxo-1,5,6,7-tetrahydrocyclopenta[b]pyridin-3-yl)methyl]-N-[[5-(trifluoromethyl)-2-pyridyl]methyl] quinoline-6-carboxamide]	
> 1000	44	1.83	Cc1cc2cc(C(=O)N(Cc3cccc(O)c3)Cc3ccc(C(F)(F)F)cn3)ccc2nc1N [Example 600, 2-amino-N-[(3-hydroxyphenyl)methyl]-3-methyl-N-[[5-(trifluoromethyl)-2-pyridyl]methyl] quinoline-6-carboxamide]	
820	38	1.78	Cc1cc2cc(C(=O)N(Cc3ccc(C(F)(F)F)cn3)[C@@H]3CCc4ccccc43)ccc2nc1N [Example 601, 2-amino-N-[(1R)-indan-1-yl]-3-methyl-N-[[5-(trifluoromethyl)-2-pyridyl]methyl] quinoline-6-carboxamide]	
> 1000	85	7.26	Cc1cc2cc(C(=O)N(Cc3ccc(C(F)(F)F)cn3)C3CCC(C)c4ccccc43)ccc2nc1N (stereo not drawn) [Example 602, 2-amino-3-methyl-N-(4-methyl-1,2,3,4-tetrahydronaphthalen-1-yl)-N-((5-(trifluoromethyl)pyridin-2-yl)methyl)quinoline-6-carboxamide]	
> 1500	317	23.7	Cc1cc2cc(C(=O)N(Cc3ccc(C(F)(F)F)cn3)C3CCCc4[nH]ccc43)ccc2nc1N (stereo not drawn) [Example 603, 2-amino-3-methyl-N-(4,5,6,7-tetrahydro-1H-indol-4-yl)-N-((5-(trifluoromethyl)pyridin-2-yl)methyl)quinoline-6-carboxamide]	
400	44	5.46	Cc1nc2c(s1)C(N(Cc1ccc(C(F)(F)F)cn1)C(=O)c1ccc3nc(N)c(C)cc3c1)CCC2 (stereo not drawn) [Example 604, 2-amino-3-methyl-N-(2-methyl-4,5,6,7-tetrahydrobenzo[d]thiazol-7-yl)-N-((5-(trifluoromethyl)pyridin-2-yl)methyl)quinoline-6-carboxamide]	
> 1300	145	6.2	Cc1cc2cc(C(=O)N(Cc3ccc(C(F)(F)F)cn3)C3CCCc4nn(C)cc43)ccc2nc1N (stereo not drawn) [Example 605, 2-amino-3-methyl-N-(2-methyl-4,5,6,7-tetrahydro-2H-indazol-4-yl)-N-((5-(trifluoromethyl)pyridin-2-yl)methyl)quinoline-6-carboxamide]	
280	27	2.9	Cc1cc2cc(C(=O)N(Cc3ccc(C(F)(F)F)cn3)C3CCCc4occc43)ccc2nc1N (stereo not drawn) [Example 606, 2-amino-3-methyl-N-(4,5,6,7-tetrahydrobenzofuran-4-yl)-N-((5-(trifluoromethyl)pyridin-2-yl)methyl)quinoline-6-carboxamide]	

Structure (SMILES)	IC50 (HCT116 WT cells) [nM]	IC50 (HCT116 MTAP null cells; HCT116-MTAP null) [nM]	Ki (PRMT5/MEP50) [nM]	IC50 (HCT116 MTAP null cells) [nM]
Cc1cc2cc(C(=O)N(Cc3ccc(C(F)(F)F)cn3)CC(C)C(F)(F)F)ccc2nc1N (stereo not drawn) [Example 591, 2-amino-3-methyl-N-(3,3,3-trifluoro-2-methylpropyl)-N-((5-(trifluoromethyl)pyridin-2-yl)methyl)quinoline-6-carboxamide]	> 1000		16.5	456
